Calls of active or inactive are those of the source. No cut-off for these calls is given here.
Legend:
[1] = Unbound drug concentration in New Zealand rabbit aqueous humor of eyeball at 1.55 mM TOP administration on eye measured upto 6 hr by LC-MS/MS analysis; format: ADME, tissue-based, Oryctolagus cuniculus; conditions: in vivo, topical_or_ocular, 1550 µM
[2] = Unbound drug concentration in New Zealand rabbit cornea at 1.55 mM TOP administration on eye measured upto 3 hr by LC-MS/MS analysis; format: ADME, tissue-based, Oryctolagus cuniculus; conditions: in vivo, topical_or_ocular, 1550 µM
[3] = Drug metabolism in New Zealand rabbit cornea assessed as 3-(hydroxymethyl)benzoic acid metabolite formation at 1.55 mM TOP administration on eye measured after 4 hr by LC-MS/MS analysis; format: ADME, tissue-based, Oryctolagus cuniculus; conditions: in vivo, topical_or_ocular, 1550 µM
[4] = Drug metabolism in New Zealand rabbit aqueous humor of eyeball assessed as (S)-3-amino-2-(4-(hydroxymethyl)phenyl)-N-(isoquinolin-6-yl)propanamide Dimethanesulfonate metabolite formation at 1.55 mM TOP administration on eye measured after 4 to 6 hrs by LC-MS/MS analysis; format: ADME, tissue-based, Oryctolagus cuniculus; conditions: in vivo, topical_or_ocular, 1550 µM, time 4-6 hrs
Mus musculus [5] = assay: Anti-glaucoma activity in magnetic microbead induced occlusion C57BL/6J mouse model assessed as increase in retinal ganglion cell density at 441.27 uM,TOP administrated on right eye thrice a day for 21 days by immunofluorescence based confocal microscopic analysis relative to control; format: functional, organism-based; conditions: time 21.0 day
[6] = Drug metabolism in New Zealand rabbit aqueous humor of eyeball assessed as 3-(hydroxymethyl)benzoic acid metabolite formation at 1.55 mM TOP administration on eye measured after 4 hrs by LC-MS/MS analysis; format: ADME, Oryctolagus cuniculus; conditions: in vivo, topical_or_ocular, 1550 µM
[7] = Drug metabolism in New Zealand rabbit cornea assessed as 3-(hydroxymethyl)benzoic acid metabolite formation at 1.55 mM TOP administration on eye measured upto 3 hr by LC-MS/MS analysis; format: ADME, tissue-based, Oryctolagus cuniculus; conditions: in vivo, topical_or_ocular, 1550 µM
[8] = Unbound drug concentration in New Zealand rabbit cornea at 1.55 mM TOP administration on eye measured upto 1 hr by LC-MS/MS analysis; format: ADME, tissue-based, Oryctolagus cuniculus; conditions: in vivo, topical_or_ocular, 1550 µM
[9] = Drug metabolism in New Zealand rabbit aqueous humor of eyeball assessed as (S)-3-amino-2-(4-(hydroxymethyl)phenyl)-N-(isoquinolin-6-yl)propanamide Dimethanesulfonate metabolite formation at 1.55 mM TOP administration on eye measured after 4 hrs by LC-MS/MS analysis; format: ADME, Oryctolagus cuniculus; conditions: in vivo, topical_or_ocular, 1550 µM
Oryctolagus cuniculus [10] = assay: Anti-glaucoma activity in methylcellulose-induced acute intraocular hypertensive New Zealand rabbit model assessed as reduction in intraocular pressure at 441.27 uM,TOP administration on conjunctival sac measured after 3 hrs relative to Netarsudil; format: functional, organism-based
[11] = Toxicity in New Zealand rabbit assessed as appearance of conjunctival congestion by measuring ocular irritation score at 0.03 % TOP administration on left eye measured after 7 days by draize eye irritation test; format: tissue-based, Oryctolagus cuniculus; conditions: in vivo, topical_or_ocular, 168 h, time 7 day
Mus musculus [12] = assay: Anti-glaucoma activity in magnetic microbead induced occlusion C57BL/6J mouse model assessed as reduction in intraocular pressure at 441.27 uM,TOP administration on right eye measured after 1 hr by tonometric analysis; format: functional, organism-based
Oryctolagus cuniculus [13] = assay: (§1) Anti-glaucoma activity in methylcellulose-induced acute intraocular hypertensive New Zealand rabbit model assessed as reduction in intraocular pressure at 1.55 mM,TOP administration on conjunctival sac measured upto 24 hrs relative to Netarsudil; format: functional, organism-based
Mus musculus [14] = assay: Anti-glaucoma activity in magnetic microbead induced occlusion C57BL/6J mouse model assessed as reduction in intraocular pressure at 441.27 uM,TOP administration on right eye measured upto 8 hr by tonometric analysis relative to Netarsudil; format: functional, organism-based
[15] = Drug metabolism in New Zealand rabbit cornea assessed as 3-((nitrooxy)methyl)benzoic acid metabolite formation at 1.55 mM TOP administration on eye measured upto 6 hr by LC-MS/MS analysis; format: ADME, tissue-based, Oryctolagus cuniculus; conditions: in vivo, topical_or_ocular, 1550 µM
[16] = Toxicity in chicken embryo chorioallantoic membrane assessed as irritation score at 1.55 mM measured after 5 mins in presence of NS 2028 by microscopic analysis; format: tissue-based, Gallus gallus; conditions: in vivo, 1550 µM
Mus musculus [17] = assay: Anti-glaucoma activity in magnetic microbead induced occlusion C57BL/6J mouse model assessed as increase in retinal ganglion cell population at 441.27 uM,TOP administrated on right eye thrice a day for 21 days by immunofluorescence based confocal microscopic analysis; format: functional, organism-based; conditions: time 21.0 day
[18] = target: T1, Rho-associated protein kinase 2 (Homo sapiens, UniProt O75116); assay: Inhibition of ROCK2 (unknown origin) incubated for 60 mins in presence of ATP by mobility shift assay
Target sequence in this assay (O75116 whole entry): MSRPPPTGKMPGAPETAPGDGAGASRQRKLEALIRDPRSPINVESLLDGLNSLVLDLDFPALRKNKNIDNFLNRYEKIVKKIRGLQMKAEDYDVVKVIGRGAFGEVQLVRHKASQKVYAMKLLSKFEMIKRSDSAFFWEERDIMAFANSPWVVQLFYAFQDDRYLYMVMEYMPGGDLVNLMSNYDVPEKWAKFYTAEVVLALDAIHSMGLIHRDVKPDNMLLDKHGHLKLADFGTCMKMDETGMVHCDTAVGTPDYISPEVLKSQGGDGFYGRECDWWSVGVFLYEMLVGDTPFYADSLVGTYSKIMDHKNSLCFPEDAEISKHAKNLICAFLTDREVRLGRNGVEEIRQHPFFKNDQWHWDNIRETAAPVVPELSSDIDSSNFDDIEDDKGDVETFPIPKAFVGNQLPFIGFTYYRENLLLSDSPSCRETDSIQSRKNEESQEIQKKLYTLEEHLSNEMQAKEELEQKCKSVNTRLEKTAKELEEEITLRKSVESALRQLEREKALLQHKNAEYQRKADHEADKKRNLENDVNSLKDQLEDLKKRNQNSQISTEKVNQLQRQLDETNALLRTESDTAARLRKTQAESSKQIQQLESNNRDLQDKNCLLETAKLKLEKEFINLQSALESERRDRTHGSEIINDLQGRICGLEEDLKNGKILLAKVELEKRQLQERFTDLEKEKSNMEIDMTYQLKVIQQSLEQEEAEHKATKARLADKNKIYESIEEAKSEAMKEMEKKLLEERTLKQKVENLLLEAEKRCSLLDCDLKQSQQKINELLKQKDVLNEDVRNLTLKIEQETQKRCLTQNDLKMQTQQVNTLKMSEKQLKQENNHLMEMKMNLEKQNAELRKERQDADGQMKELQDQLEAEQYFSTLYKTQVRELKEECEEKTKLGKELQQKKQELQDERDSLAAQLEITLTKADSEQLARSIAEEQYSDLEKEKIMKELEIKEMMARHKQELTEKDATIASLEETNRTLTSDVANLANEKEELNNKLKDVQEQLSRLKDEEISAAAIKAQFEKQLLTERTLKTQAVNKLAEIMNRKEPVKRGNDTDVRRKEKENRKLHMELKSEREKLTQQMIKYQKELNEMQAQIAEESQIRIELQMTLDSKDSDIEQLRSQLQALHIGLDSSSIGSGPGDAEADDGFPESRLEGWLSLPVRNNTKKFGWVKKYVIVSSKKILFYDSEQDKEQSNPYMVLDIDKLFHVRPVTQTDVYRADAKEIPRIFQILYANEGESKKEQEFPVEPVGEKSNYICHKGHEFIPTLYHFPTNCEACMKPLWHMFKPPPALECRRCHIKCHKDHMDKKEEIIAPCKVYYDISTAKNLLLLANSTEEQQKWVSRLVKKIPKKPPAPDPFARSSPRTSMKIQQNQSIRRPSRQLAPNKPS

[19] = Toxicity in New Zealand rabbit assessed as appearance of conjunctival congestion by measuring ocular irritation score at 0.03 % TOP administration on left eye measured after 5 days by draize eye irritation test; format: tissue-based, Oryctolagus cuniculus; conditions: in vivo, topical_or_ocular, 120 h, time 5 day
[20] = Toxicity in New Zealand rabbit assessed as appearance of conjunctival congestion by measuring ocular irritation score at 0.03 % TOP administration on left eye measured after 1 day by draize eye irritation test; format: tissue-based, Oryctolagus cuniculus; conditions: in vivo, topical_or_ocular, 24 h
Oryctolagus cuniculus [21] = assay: Anti-glaucoma activity in methylcellulose-induced acute intraocular hypertensive New Zealand rabbit model assessed as reduction in intraocular pressure at 441.27 uM,TOP administration on conjunctival sac measured for 4 to 24 hrs relative to Netarsudil; format: functional, organism-based; conditions: time 4-24 hrs
[22] = target: T2, Rho-associated protein kinase 1 (Homo sapiens, UniProt Q13464); assay: Inhibition of ROCK1 (unknown origin) assessed as fold change at 3 uM incubated for 10 mins in presence of ATP by mobility shift assay relative to control
Target sequence in this assay (Q13464 2-1354 limits assumed): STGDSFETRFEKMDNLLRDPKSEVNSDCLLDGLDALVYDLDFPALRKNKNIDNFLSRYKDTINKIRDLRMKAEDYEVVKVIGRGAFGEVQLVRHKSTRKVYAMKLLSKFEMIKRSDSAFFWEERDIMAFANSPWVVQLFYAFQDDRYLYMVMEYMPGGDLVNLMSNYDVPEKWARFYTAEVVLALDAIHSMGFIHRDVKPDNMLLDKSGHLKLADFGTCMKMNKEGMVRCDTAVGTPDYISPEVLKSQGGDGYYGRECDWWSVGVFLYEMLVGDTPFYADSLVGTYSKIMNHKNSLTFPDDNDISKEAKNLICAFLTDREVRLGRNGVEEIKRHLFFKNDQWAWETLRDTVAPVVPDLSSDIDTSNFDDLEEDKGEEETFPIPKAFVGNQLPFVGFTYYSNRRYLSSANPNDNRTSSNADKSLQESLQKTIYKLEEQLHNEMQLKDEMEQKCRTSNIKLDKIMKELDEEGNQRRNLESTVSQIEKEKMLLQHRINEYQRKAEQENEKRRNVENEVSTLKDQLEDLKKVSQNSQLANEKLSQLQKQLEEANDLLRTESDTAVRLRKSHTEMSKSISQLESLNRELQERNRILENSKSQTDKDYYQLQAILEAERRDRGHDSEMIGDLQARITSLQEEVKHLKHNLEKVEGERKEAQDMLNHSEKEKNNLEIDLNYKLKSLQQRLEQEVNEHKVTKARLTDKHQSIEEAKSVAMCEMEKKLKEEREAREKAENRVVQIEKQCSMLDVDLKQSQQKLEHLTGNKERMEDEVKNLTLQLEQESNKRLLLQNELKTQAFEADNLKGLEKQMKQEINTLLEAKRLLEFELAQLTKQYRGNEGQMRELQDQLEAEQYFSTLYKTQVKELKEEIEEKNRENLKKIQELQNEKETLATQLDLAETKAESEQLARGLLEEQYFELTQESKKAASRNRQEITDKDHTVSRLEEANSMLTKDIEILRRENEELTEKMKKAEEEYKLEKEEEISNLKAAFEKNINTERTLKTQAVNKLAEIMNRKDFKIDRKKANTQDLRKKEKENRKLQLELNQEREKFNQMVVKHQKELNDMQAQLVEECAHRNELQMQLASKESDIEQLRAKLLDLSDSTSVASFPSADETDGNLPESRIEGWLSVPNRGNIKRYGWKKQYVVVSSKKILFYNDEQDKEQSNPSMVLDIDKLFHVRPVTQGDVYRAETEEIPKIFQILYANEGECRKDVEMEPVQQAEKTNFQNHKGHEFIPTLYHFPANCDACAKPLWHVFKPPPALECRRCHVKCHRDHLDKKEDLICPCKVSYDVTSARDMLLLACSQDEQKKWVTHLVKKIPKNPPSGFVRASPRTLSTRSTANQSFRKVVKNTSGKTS

[23] = Toxicity in New Zealand rabbit assessed as appearance of conjunctival congestion by measuring ocular irritation score at 0.03 % TOP administration on left eye measured after 4 days by draize eye irritation test; format: tissue-based, Oryctolagus cuniculus; conditions: in vivo, topical_or_ocular, 96 h, time 4 day
[24] = Drug metabolism in New Zealand rabbit cornea assessed as 3-(hydroxymethyl)benzoic acid metabolite formation at 1.55 mM TOP administration on eye measured upto 1 hr by LC-MS/MS analysis; format: ADME, tissue-based, Oryctolagus cuniculus; conditions: in vivo, topical_or_ocular, 1550 µM
[25] = Toxicity in New Zealand rabbit assessed as appearance of conjunctival congestion by measuring ocular irritation score at 0.03 % TOP administration on left eye measured after 6 days by draize eye irritation test; format: tissue-based, Oryctolagus cuniculus; conditions: in vivo, topical_or_ocular, 144 h, time 6 day
[26] = Drug metabolism in New Zealand rabbit aqueous humor of eyeball assessed as 3-((nitrooxy)methyl)benzoic acid metabolite formation at 1.55 mM TOP administration on eye measured upto 6 hrs by LC-MS/MS analysis; format: ADME, tissue-based, Oryctolagus cuniculus; conditions: in vivo, topical_or_ocular, 1550 µM
[27] = Toxicity in chicken embryo chorioallantoic membrane assessed as irritation score at 1.55 mM measured after 5 mins in presence of PTIO by microscopic analysis; format: tissue-based, Gallus gallus; conditions: in vivo, 1550 µM
[28] = Toxicity in chicken embryo chorioallantoic membrane assessed as irritation score at 1.55 mM measured after 5 mins by microscopic analysis relative to Netarsudil; format: tissue-based, Gallus gallus; conditions: in vivo, 1550 µM
Mus musculus [29] = assay: Anti-glaucoma activity in magnetic microbead induced occlusion C57BL/6J mouse model assessed as increase in retinal ganglion cell population at 441.27 uM,TOP administrated on right eye thrice a day for 21 days by immunofluorescence based confocal microscopic analysis relative to Netarsudil; format: functional, organism-based; conditions: time 21.0 day
[30] = Toxicity in New Zealand rabbit assessed as appearance of conjunctival congestion by measuring ocular irritation score at 0.03 % TOP administration on left eye measured after 3 days by draize eye irritation test; format: tissue-based, Oryctolagus cuniculus; conditions: in vivo, topical_or_ocular, 72 h, time 3 day
[31] = target: T1, Rho-associated protein kinase 2; assay: Inhibition of ROCK2 (unknown origin) assessed as fold change at 3 uM incubated for 60 mins in presence of ATP by mobility shift assay
Target sequence in this assay (O75116 whole entry, looked up): as the sequence (O75116 whole entry) above

[32] = Toxicity in New Zealand rabbit assessed as appearance of conjunctival congestion by measuring ocular irritation score at 0.03 % TOP administration on left eye measured after 2 days by draize eye irritation test; format: tissue-based, Oryctolagus cuniculus; conditions: in vivo, topical_or_ocular, 48 h, time 2 day
[33] = Drug metabolism in New Zealand rabbit cornea assessed as (S)-3-amino-2-(4-(hydroxymethyl)phenyl)-N-(isoquinolin-6-yl)propanamide Dimethanesulfonate metabolite formation at 1.55 mM TOP administration on eye measured upto 6 hrs by LC-MS/MS analysis; format: ADME, tissue-based, Oryctolagus cuniculus; conditions: in vivo, topical_or_ocular, 1550 µM
[34] = Drug metabolism in New Zealand rabbit aqueous humor of eyeball assessed as 3-(hydroxymethyl)benzoic acid metabolite formation at 1.55 mM TOP administration on eye measured after 4 to 6 hrs by LC-MS/MS analysis; format: ADME, Oryctolagus cuniculus; conditions: in vivo, topical_or_ocular, 1550 µM, time 4-6 hrs
[35] = Drug metabolism in New Zealand rabbit aqueous humor of eyeball assessed as 3-(hydroxymethyl)benzoic acid metabolite formation at 1.55 mM TOP administration on eye measured after 4 hr by LC-MS/MS analysis; format: ADME, tissue-based, Oryctolagus cuniculus; conditions: in vivo, topical_or_ocular, 1550 µM
Oryctolagus cuniculus [36] = assay: as §1, with “(R)-4-(3-amino-1-(isoquinolin-6-ylamino)-1-oxopropan-2-yl)benzyl 3-((nitrooxy)methyl)benzoate Dimethanesulfonate” for “Netarsudil”; format: functional, organism-based
[37] = target: T2, Rho-associated protein kinase 1; assay: Inhibition of ROCK1 (unknown origin) incubated for 10 mins in presence of ATP by mobility shift assay
Target sequence in this assay (Q13464 whole entry): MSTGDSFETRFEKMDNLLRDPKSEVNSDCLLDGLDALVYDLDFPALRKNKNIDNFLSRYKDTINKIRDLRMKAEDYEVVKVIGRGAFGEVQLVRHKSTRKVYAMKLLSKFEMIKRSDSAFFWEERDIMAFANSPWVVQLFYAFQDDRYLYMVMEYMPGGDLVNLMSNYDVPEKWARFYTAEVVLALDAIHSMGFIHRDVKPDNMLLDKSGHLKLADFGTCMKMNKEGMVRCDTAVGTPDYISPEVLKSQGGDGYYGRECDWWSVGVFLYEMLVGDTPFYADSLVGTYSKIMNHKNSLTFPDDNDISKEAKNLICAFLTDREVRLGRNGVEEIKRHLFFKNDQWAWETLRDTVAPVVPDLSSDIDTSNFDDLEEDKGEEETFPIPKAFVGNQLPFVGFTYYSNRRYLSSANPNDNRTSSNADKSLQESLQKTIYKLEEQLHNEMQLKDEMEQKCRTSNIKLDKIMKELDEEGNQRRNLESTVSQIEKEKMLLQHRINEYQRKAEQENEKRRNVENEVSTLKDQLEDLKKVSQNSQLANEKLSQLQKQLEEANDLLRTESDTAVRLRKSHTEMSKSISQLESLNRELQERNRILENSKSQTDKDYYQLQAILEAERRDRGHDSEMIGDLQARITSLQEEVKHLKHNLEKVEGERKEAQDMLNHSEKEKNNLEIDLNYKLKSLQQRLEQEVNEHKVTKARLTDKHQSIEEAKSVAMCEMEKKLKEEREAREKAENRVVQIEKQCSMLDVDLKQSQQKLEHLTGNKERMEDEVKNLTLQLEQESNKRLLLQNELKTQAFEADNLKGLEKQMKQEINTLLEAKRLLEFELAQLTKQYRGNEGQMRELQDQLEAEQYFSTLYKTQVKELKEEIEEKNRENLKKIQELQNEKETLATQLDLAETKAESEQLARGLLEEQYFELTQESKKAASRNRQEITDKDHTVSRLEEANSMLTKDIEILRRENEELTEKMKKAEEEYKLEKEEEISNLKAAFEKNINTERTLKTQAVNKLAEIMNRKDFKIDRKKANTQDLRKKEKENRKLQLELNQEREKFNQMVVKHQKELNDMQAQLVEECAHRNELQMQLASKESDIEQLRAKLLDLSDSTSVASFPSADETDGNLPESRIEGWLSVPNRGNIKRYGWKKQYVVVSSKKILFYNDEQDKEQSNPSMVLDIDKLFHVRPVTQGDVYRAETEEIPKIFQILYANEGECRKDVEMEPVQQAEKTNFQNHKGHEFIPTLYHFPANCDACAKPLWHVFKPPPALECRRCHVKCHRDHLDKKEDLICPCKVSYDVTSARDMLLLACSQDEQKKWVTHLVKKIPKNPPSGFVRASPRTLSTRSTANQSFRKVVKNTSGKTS

[38] = Toxicity in chicken embryo chorioallantoic membrane assessed as irritation score at 1.55 mM measured after 5 mins by microscopic analysis relative to Latanoprost; format: tissue-based, Gallus gallus; conditions: in vivo, 1550 µM
Oryctolagus cuniculus [39] = assay: Anti-glaucoma activity in methylcellulose-induced acute intraocular hypertensive New Zealand rabbit model assessed as reduction in intraocular pressure at 1.55 mM,TOP administration on conjunctival sac measured for 1 to 4 hrs; format: functional, organism-based; conditions: time 1-4 hrs

## CS(=O)(=O)O.CS(=O)(=O)O.NC[C@@H](C(=O)Nc1ccc2cnccc2c1)c1ccc(COC(=O)c2cccc(CO[N+](=O)[O-])c2)cc1
[1]
  Drug uptake(free): Active
[2]
  Drug uptake(free): Not Active
[3]
  Drug metabolism: 114.73 ng/mg
[4]
  Drug metabolism: Metabolite_Notdetected
Mus musculus [5]
  Activity: Active
[6]
  Drug metabolism: 62.95 ng/mL
[7]
  Drug metabolism: Metabolite_Notdetected
[8]
  Drug uptake(free): 14.12 ng/g
[9]
  Drug metabolism: 0.96 ng/mL
Oryctolagus cuniculus [10]
  Activity: Active
[11]
  Activity: 0.67
Mus musculus [12]
  Activity: Active
Oryctolagus cuniculus [13]
  Activity: Active
Mus musculus [14]
  Activity: Active
[15]
  Drug metabolism: Metabolite_Detected
[16]
  Activity: Toxic
Mus musculus [17]
  Activity: Active
[18]
  IC50: 0.66 nM
[19]
  Activity: 0.67
[20]
  Activity: 1.67
Oryctolagus cuniculus [21]
  Activity: inactive
[22]
  fold change (FC): 28
[23]
  Activity: 1.67
[24]
  Drug metabolism: 371.53 ng/g
[25]
  Activity: 1
[26]
  Drug metabolism: Metabolite_Detected
[27]
  Activity: Toxic
[28]
  Activity: Toxic
Mus musculus [29]
  Activity: Active
[30]
  Activity: 1.67
[31]
  fold change (FC): 38
[32]
  Activity: 1
[33]
  Drug metabolism: Metabolite_Detected
[34]
  Drug metabolism: Metabolite_Notdetected
[35]
  Drug metabolism: 60.87 ng/mL
Oryctolagus cuniculus [36]
  Activity: Active
[37]
  IC50: 1.26 nM

## NCC(C(=O)Nc1ccc2cnccc2c1)c1ccc(COC(=O)CCC(=O)O[C@@H]2CO[C@@H]3[C@H]2OC[C@@H]3O[N+](=O)[O-])cc1 (some centres not stated)
[18]
  IC50: 8.56 nM
[37]
  IC50: 28.6 nM

## C[C@H]1CNCCCN1S(=O)(=O)c1cccc2cncc(F)c12
[18]
  IC50: 13.1 nM

## NC[C@H](C(=O)Nc1ccc2cnccc2c1)c1ccc(COC(=O)c2cccc(CO[N+](=O)[O-])c2)cc1
[18]
  IC50: 25.3 nM
[37]
  IC50: 35.4 nM

## O=C(CCC/C=C\C[C@@H]1[C@@H](CC[C@@H](O)CCc2ccccc2)[C@H](O)C[C@@H]1O)OCCCCO[N+](=O)[O-] [LATANOPROSTENE BUNOD]
[38]
  Activity: Toxic

## CS(=O)(=O)O.CS(=O)(=O)O.NCC(C(=O)Nc1ccc2cnccc2c1)c1ccc(COC(=O)c2ccc(CO[N+](=O)[O-])cc2)cc1 (configuration not stated)
Oryctolagus cuniculus [39]
  Activity: Active
[18]
  IC50: 0.83 nM
[28]
  Activity: Toxic
[37]
  IC50: 1.48 nM

From ChEMBL document CHEMBL5614405 (J Med Chem, 2024)
